Our source for the zones of inhibition values is patent US20210169959A1, “TERMINALIA FERDINANDIANA EXTRACT AND PRODUCTS CONTAINING EXTRACT OF TERMINALIA FERDINANDIANA FOR ANTIMICROBIAL OR ANTIBACTERIAL APPLICATIONS” (RISING PHOENIX INDUSTRIES PTY LTD, priority 2017, published 2021).

The subject of experiment [1] is Clostridium perfringens. Nature of the experiment: microbe, parasite or virus in culture. The class given is cell-based. Particulars: 10 μL extract per 6 mm disc; penicillin 2 μg, ampicillin 10 μg; mean ± SEM.
The subject of experiment [2] is Bacillus anthracis. Nature of the experiment: microbe, parasite or virus in culture. The class given is cell-based. Particulars: 10 μL extract per 5 mm disc; penicillin 2 μg, ampicillin 10 μg; mean ± SEM.

As for penicillin, the zones of inhibition in experiment [1] was 12.3±0.3 mm; in experiment [2], 8.3±0.6 mm.
